Assay results from paper PMC4038586, “Venus Kinase Receptors Control Reproduction in the Platyhelminth Parasite Schistosoma mansoni” (PLoS Pathogens, 2014).

Biological target: T1, SmVKR1 (Schistosoma mansoni, UniProt Q8WSM2)
T1 construct: full-length, pcDNA3.1-V5/His (V5 or Myc tag), cRNA-injected Xenopus laevis oocytes; about 150 kDa; active as homodimer
Test: GVBD competition assay in receptor-expressing Xenopus oocytes
Type: cell-based
Conditions: competitive antagonist; 10-fold excess over L-Arg; inactive as agonist

T1 sequence (Q8WSM2 24-1559): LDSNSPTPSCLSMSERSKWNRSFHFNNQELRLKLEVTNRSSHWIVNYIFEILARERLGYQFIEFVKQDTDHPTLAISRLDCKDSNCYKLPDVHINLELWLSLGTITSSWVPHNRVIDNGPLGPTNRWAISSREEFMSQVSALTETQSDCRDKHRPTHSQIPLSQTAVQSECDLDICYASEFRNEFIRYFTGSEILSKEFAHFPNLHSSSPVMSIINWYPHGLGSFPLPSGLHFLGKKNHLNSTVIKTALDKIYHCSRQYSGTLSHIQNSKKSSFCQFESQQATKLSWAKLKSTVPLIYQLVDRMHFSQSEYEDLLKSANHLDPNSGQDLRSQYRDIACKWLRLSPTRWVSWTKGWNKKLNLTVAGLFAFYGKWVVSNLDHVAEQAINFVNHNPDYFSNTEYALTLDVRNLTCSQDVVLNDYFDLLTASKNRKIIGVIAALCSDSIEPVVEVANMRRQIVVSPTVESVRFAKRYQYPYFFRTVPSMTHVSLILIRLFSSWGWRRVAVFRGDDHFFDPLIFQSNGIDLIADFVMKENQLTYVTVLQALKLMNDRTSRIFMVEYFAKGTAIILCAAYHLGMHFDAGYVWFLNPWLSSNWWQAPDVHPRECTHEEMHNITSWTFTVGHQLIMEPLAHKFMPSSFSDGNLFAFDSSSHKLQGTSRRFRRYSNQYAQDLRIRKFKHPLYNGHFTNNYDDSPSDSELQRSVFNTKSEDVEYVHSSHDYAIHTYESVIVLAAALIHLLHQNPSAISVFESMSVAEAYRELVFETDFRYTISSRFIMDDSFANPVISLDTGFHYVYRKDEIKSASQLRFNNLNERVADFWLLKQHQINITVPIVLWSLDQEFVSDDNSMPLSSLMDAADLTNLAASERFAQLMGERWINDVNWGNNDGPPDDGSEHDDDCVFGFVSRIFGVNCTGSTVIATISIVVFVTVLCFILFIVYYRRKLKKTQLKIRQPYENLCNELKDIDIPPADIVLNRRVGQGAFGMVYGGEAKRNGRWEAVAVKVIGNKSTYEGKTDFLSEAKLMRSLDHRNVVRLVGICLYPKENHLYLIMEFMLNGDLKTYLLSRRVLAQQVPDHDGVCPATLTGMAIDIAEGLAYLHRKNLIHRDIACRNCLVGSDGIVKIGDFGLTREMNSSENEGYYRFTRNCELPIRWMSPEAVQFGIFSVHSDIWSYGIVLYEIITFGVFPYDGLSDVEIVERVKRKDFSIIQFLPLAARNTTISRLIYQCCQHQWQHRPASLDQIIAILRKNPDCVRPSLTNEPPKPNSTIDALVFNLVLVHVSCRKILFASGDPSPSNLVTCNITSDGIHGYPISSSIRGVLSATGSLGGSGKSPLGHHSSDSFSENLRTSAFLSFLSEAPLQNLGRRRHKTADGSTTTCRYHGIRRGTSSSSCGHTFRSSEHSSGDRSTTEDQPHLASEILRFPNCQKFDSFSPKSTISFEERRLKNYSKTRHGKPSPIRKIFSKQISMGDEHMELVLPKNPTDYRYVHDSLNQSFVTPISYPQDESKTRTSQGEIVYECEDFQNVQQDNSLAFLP

| Structure (SMILES) | GVBD competition assay in receptor-expressing Xenopus oocytes |
| --- | --- |
| N=C(N)NOCC[C@H](N)C(=O)O [Canavanine] | compete and to block totally the inducing effect of L-Arg |
| N=C(N)NCCC[C@@H](N)C(=O)O [D-Arg] | compete and to block totally the inducing effect of L-Arg |
| N=C(N)NCCCCN [agmatine] | compete and to block totally the inducing effect of L-Arg |
| CN(CC(=O)O)C(=N)N [creatine] | compete and to block totally the inducing effect of L-Arg |
| NCCC[C@H](N)C(=O)O [ornithine] | compete and to block totally the inducing effect of L-Arg |

Biological target: T1, SmVKR1
Test: GVBD assay in receptor-expressing Xenopus oocytes
Type: cell-based
Conditions: agonist

| Structure (SMILES) | GVBD at 1 mM |
| --- | --- |
| C[C@H](N)C(=O)O [Ala] | (Arg, Ser, Gly, Ala, Cys, Thr and Glu) had the potential to activate SmVKR1 |
| N[C@@H](CS)C(=O)O [Cys] | (Arg, Ser, Gly, Ala, Cys, Thr and Glu) had the potential to activate SmVKR1 |
| N[C@@H](CCC(=O)O)C(=O)O [Glu] | (Arg, Ser, Gly, Ala, Cys, Thr and Glu) had the potential to activate SmVKR1 |
| NCC(=O)O [Gly] | (Arg, Ser, Gly, Ala, Cys, Thr and Glu) had the potential to activate SmVKR1 |
| N[C@@H](CO)C(=O)O [Ser] | (Arg, Ser, Gly, Ala, Cys, Thr and Glu) had the potential to activate SmVKR1 |
| C[C@@H](O)[C@H](N)C(=O)O [Thr] | (Arg, Ser, Gly, Ala, Cys, Thr and Glu) had the potential to activate SmVKR1 |

Biological target: T2, SmVKR2 (Schistosoma mansoni, UniProt D5JEH1)
T2 construct: full-length, pcDNA3.1-V5/His (V5 or Myc tag), cRNA-injected Xenopus laevis oocytes; about 170 kDa; active as homodimer
Test: GVBD assay in receptor-expressing Xenopus oocytes; receptor autophosphorylation by Western blot
Type: cell-based
Conditions: agonist; ND96 medium without Ca2+; VFT domain

T2 sequence (D5JEH1 21-1641): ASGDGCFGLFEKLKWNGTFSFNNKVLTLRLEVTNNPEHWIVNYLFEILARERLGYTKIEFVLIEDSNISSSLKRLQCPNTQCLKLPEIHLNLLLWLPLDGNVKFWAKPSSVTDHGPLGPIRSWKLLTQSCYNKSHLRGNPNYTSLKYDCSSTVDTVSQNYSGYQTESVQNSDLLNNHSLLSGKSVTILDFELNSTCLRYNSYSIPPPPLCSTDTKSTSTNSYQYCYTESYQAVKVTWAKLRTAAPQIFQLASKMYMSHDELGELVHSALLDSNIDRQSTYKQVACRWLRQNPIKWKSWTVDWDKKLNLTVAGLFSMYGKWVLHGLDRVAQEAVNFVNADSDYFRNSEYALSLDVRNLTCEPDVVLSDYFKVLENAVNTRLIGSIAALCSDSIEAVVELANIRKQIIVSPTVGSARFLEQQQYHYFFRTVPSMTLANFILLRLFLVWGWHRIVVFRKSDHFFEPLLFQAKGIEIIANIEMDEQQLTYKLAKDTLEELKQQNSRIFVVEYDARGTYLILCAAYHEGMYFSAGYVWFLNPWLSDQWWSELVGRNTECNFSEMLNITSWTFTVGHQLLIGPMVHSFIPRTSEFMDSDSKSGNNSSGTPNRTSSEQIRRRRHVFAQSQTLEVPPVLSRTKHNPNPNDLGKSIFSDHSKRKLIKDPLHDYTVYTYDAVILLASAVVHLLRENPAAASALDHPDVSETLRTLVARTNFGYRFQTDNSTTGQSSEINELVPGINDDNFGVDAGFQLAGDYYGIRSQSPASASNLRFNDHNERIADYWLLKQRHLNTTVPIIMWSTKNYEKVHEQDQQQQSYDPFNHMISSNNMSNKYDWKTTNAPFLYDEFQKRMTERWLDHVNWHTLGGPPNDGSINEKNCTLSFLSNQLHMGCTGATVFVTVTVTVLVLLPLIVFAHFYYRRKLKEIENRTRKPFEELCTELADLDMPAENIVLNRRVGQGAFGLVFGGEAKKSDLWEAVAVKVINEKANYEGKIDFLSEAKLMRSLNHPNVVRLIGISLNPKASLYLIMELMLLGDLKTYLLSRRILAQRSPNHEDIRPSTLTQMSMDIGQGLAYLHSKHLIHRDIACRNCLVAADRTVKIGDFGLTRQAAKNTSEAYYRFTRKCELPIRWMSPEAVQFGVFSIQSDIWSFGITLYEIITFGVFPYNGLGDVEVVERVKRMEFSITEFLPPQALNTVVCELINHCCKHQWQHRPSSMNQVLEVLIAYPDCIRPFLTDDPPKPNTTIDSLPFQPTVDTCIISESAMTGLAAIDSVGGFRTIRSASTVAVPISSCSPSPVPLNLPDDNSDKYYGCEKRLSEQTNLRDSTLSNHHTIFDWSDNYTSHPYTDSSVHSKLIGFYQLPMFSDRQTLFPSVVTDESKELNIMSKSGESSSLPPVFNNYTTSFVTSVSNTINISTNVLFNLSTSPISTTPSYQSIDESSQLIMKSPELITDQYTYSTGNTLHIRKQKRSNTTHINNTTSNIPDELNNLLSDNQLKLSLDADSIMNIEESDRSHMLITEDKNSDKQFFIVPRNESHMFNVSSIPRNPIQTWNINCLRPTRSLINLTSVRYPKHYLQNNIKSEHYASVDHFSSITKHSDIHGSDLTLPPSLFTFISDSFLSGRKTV

| Structure (SMILES) | minimal concentration [mM] |
| --- | --- |
| N=C(N)NCCC[C@H](N)C(=O)O [L-Arg] | 1 |

Biological target: T1, SmVKR1
Test: as above
Type: cell-based
Conditions: agonist; ND96 medium, 19 °C, 15 h; VFT domain; activation independent of Ca2+

| Structure (SMILES) | % GVBD at 1 μM [%] |
| --- | --- |
| N=C(N)NCCC[C@H](N)C(=O)O [L-Arg] | 80 |
